From publication PMC10468298, “Umami taste perception and preferences of the domestic cat (Felis catus), an obligate carnivore” (Chemical Senses, 2023)
Where two headings read alike, the source gives them in different places. Values belong to the compound of their own block, whether it stands above or below them.

Columns and labels:
[1] = system: cats; assay: 2-bottle taste choice test, cat water panel, 18-h exposure; type: in vivo, domestic cat (Felis catus)
Protocol: The minimum panel size was n = 14, but only for one study with 80 mM MSG; in all other cases, the minimum panel size was n = 21. The maximum panel size was n = 24. […] For those cases, we have also reported the number of unique cats, as some cats were present in more than one study. All cats on the panel had previously been habituated and screened for suitability to perform this type of study. […] The cats were re-homed once they completed their tenure at the Waltham Petcare Science Institute, as per standard Waltham practice.
Solutions were made with deionized water (Purite, UK). […] In some cases, salts were purchased instead of the pure compound due to solubility, stability, or availability. For all the solutions, the pH range spanned approximately 5–8.
Choice tests for the taste compound solutions at specific concentrations were run over an 18-h period using a 2-bottle testing apparatus. […] All animal studies conformed with the Mars Animal Research Policy (www.Mars.com) and were approved by the Waltham Animal Welfare and Ethical Review Body.
Using a bespoke statistical analysis toolkit, based on R software (R Foundation, Vienna, Austria), a mixed model analysis was performed on the difference in intake (g) between water solutions, including cat (random) as a factor where appropriate. This was used to test the mean intake difference versus 0, i.e. no difference, at a 5% significance level. The mean difference in intake was reported with a 95% confidence interval. Any data errors (e.g. following manual error such as solution spillage, overflow) were removed from the final data set for analysis.

[2] = biological target: T1, cat Tas1r1-Tas1r3 (Felis catus, UniProt A0ABI7Z2I4); assay: Calcium mobilization assay (FLIPR) in HEK293T cells expressing cat Tas1r1-Tas1r3 and mGα15i1; settings: for Activity as agonist or enhancer of the cat umami receptor: alone and with 0.2 mM IMP
T1 sequence (A0ABI7Z2I4 entry or part of it): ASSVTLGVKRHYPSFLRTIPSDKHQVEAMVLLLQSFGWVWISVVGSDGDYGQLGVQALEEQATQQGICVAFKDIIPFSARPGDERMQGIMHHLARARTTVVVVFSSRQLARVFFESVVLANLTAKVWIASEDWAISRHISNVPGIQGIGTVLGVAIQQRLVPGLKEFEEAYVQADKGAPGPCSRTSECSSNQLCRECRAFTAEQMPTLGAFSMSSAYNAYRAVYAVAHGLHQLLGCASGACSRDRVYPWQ
T1 sequence (Q49KI5 25-865, further chain): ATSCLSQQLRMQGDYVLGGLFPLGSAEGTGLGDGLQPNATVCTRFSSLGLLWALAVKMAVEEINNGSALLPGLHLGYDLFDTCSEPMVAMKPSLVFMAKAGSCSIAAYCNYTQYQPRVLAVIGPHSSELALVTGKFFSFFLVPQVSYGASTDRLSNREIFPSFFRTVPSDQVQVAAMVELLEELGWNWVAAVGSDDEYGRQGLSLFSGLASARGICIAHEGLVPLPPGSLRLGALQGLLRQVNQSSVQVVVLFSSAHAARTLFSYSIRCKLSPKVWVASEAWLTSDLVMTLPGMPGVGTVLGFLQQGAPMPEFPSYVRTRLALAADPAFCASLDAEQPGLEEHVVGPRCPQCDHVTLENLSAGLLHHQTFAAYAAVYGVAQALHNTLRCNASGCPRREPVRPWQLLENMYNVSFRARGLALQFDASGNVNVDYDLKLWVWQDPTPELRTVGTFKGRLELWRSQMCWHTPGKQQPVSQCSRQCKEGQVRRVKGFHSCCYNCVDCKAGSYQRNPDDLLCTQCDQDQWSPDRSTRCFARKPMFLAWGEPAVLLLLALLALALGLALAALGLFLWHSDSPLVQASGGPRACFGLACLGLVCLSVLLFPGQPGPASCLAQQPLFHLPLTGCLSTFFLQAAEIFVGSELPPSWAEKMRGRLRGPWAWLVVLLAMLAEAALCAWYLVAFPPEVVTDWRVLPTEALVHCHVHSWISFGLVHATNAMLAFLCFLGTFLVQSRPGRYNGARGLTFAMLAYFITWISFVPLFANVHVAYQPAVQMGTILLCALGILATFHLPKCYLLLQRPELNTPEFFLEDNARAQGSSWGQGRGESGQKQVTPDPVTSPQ

[3] = system: cats; assay: Taste choice test, cat water panel, 1-hr exposure; type: in vivo, domestic cat (Felis catus)
Protocol: All taste choice tests with 1-hr exposure period were run as outlined in the Materials and Methods, with the following differences. The minimum panel size was n = 24 and the maximum panel size was n = 25. […] The cats were water-restricted for 1-hr prior to the 1-hr water exposure period, with their first meal given in the last 20-min of the water restriction. 50 mL of each test solution was offered to the cats in round water bowls with a maximum capacity 150 mL (Flyte So Fancy, UK), which were held in bespoke bowl holders (TECHNIK – A Division of Syspal Ltd., UK).

[4] = system: cat Tas1r1 VFT; parameters: method as in Belloir et al. 2017; settings: intrinsic tryptophan fluorescence; ref Belloir et al. 2017; cited from earlier work
[5] = system: cats; parameters: method as in Beauchamp et al. 1977; settings: 10, 20, 40 and 80 mM versus water, 1-h; ref Beauchamp et al. 1977; cited from earlier work
[6] = system: cats; settings: cited from earlier work; for Behavioral response of cats to the solutions: acidic solutions, ref Beauchamp et al. 1977, McGrane et al. 2013
[7] = biological target: T1, cat Tas1r1-Tas1r3; parameters: method as in Toda et al. 2021; settings: ref Toda et al. 2021, cited from earlier work; for Activation of cat Tas1r1-Tas1r3: tested alone
[8] = system: cats; parameters: method as in White and Boudreau 1975; settings: 0.5, 5.0 and 50.0 mM in 50 mM saline versus 50 mM saline, 24-h; ref White and Boudreau 1975; cited from earlier work
[9] = Solubility of amino acids in assay buffer / water; settings: Tyrode's buffer pH 7.4, sonication
[10] = amino acid 25 mM versus L-Serine 25 mM
[11] = amino acid 25 mM versus L-Tryptophan 25 mM
[12] = amino acid 25 mM versus L-Asparagine 25 mM

SMILES: N[C@@H](Cc1ccc(O)cc1)C(=O)O [L-Tyrosine]
Intake diff. ([1]; amino acid 2.5 mM versus water): -1.8 g
EC50 [2]: 22.2 mM

EC50 [2]: 15.5 mM
SMILES: C[C@H](N)C(=O)O [L-Alanine, reference compound]
Intake diff. ([1]; amino acid 25 mM versus water): 30.5 g
Intake diff. ([3]; amino acid 25 mM versus water): 16.9 g
Ligand binding to cat Tas1r1 VFT (conformational change) [4]: active
Behavioral response of cats [5]: may be preferred to water

SMILES: Nc1ncnc2c1ncn2[C@@H]1O[C@H](COP(=O)(O)O)[C@@H](O)[C@H]1O [AMP, Adenosine 5ʹ-monophosphate]
Intake diff. ([1]; nucleotide 5 mM versus water): 25.4 g
Intake diff. ([3]; nucleotide 5 mM versus water): 20.6 g

SMILES: CC[C@H](C)[C@H](N)C(=O)O [L-Isoleucine]
Ligand binding to cat Tas1r1 VFT (conformational change) [4]: active

SMILES: N[C@@H](CCC(=O)O)C(=O)O [L-Glutamic acid]
Activity as agonist or enhancer of the cat umami receptor [2]: did not respond
Behavioral response of cats to the solutions [6]: avoided
Activation of cat Tas1r1-Tas1r3 [7]: inactive alone
Behavioral response of cats [5]: avoided

Activity as agonist or enhancer of the cat umami receptor [2]: did not respond
SMILES: N[C@@H](CC(=O)O)C(=O)O [L-Aspartic acid]
Behavioral response of cats to the solutions [6]: avoided

Activity as agonist or enhancer of the cat umami receptor [2]: inactive
SMILES: NCCS(=O)(=O)O [Taurine]

EC50 [2]: 31.7 mM
SMILES: CC(C)C[C@H](N)C(=O)O [L-Leucine]
Intake diff. ([1]; amino acid 25 mM versus water): 36.6 g
Intake diff. ([3]; amino acid 25 mM versus water): 22.5 g

SMILES: N[C@@H](CCC(=O)O)C(=O)[O-].[Na+] [MSG, monosodium glutamate]
Intake diff. ([1]; MSG 20 mM versus water): 22.2 g
Intake diff. ([1]; MSG 80 mM versus water): -7.9 g

SMILES: N[C@@H](CS)C(=O)O [L-Cysteine]
Intake diff. ([1]; amino acid 25 mM versus water): 48.3 g
EC50 [2]: 13.1 mM
Intake diff. ([3]; amino acid 25 mM versus water): 27.9 g
Ligand binding to cat Tas1r1 VFT (conformational change) [4]: inactive

SMILES: NCC(=O)O [Glycine]
Intake diff. ([1]; amino acid 25 mM versus water): 20.8 g
Intake diff. ([3]; amino acid 25 mM versus water): 9.1 g
Behavioral response of cats [5]: indifferent

SMILES: N=C(N)NCCC[C@H](N)C(=O)O [L-Arginine]
Ligand binding to cat Tas1r1 VFT (conformational change) [4]: active

EC50 ([2]; read-out: wIMP EC50, L-amino acid with 0.2 mM IMP): 15.7 mM
SMILES: NC(=O)C[C@H](N)C(=O)O [L-Asparagine]
Intake diff. [1, 10]: 12.0 g
Intake diff. [1, 11]: -20.9 g
Intake diff. ([1]; amino acid 25 mM versus water): 35.9 g

SMILES: N[C@@H](Cc1c[nH]cn1)C(=O)O [L-Histidine]
Behavioral response of cats [8]: preferred
Intake diff. [1, 12]: 77.0 g
Intake diff. [1, 10]: 91.5 g
Intake diff. [1, 11]: 97.0 g
Intake diff. ([1]; amino acid 25 mM versus water): 43.7 g
EC50 [2]: 9.71 mM
Ligand binding to cat Tas1r1 VFT (conformational change) [4]: active
Behavioral preference of cats ([6]; 100 mM, ref McGrane et al. 2013): significant behavioral preference

SMILES: N[C@@H](Cc1c[nH]c2ccccc12)C(=O)O [L-Tryptophan]
Solubility in assay buffer [9]: insoluble at 60 mM
Behavioral response of cats [8]: avoided
Intake diff. [1, 12]: 20.9 g
Intake diff. [1, 10]: -11.6 g
Intake diff. ([1]; amino acid 25 mM versus water): 8.4 g
EC50 [2]: 6.32 mM
Intake diff. ([3]; amino acid 25 mM versus water): 10.0 g

SMILES: CSCC[C@H](N)C(=O)O [L-Methionine]
Intake diff. ([1]; amino acid 25 mM versus water): 35.8 g
EC50 [2]: > 30 mM

SMILES: N[C@@H](CO)C(=O)O [L-Serine]
Intake diff. ([1]; amino acid 25 mM versus water): 25.3 g
EC50 [2]: 14.1 mM
Intake diff. ([3]; amino acid 25 mM versus water): 18.0 g

SMILES: N[C@@H](Cc1ccccc1)C(=O)O [L-Phenylalanine]
Intake diff. ([1]; amino acid 25 mM versus water): 34.5 g
Intake diff. ([3]; amino acid 25 mM versus water): 19.4 g

EC50 [2]: 0.32 mM
Concentration at which the assay started to respond ([2]; nucleotide alone): around 0.1 mM
SMILES: Nc1nc2c(ncn2[C@@H]2O[C@H](COP(=O)(O)O)[C@@H](O)[C@H]2O)c(=O)[nH]1 [GMP, Guanosine 5ʹ-monophosphate]
Intake diff. ([1]; nucleotide 5 mM versus water): 78.8 g
Concentration at which the assay started to respond ([7]; rat Gα15 chimera): around 0.01 mM
Activation of cat Tas1r1-Tas1r3 [7]: strongly activated

SMILES: O=c1ccn([C@@H]2O[C@H](COP(=O)(O)O)[C@@H](O)[C@H]2O)c(=O)[nH]1 [UMP, Uridine 5ʹ-monophosphate]
Intake diff. ([1]; nucleotide 5 mM versus water): 67.0 g

SMILES: Nc1ccn([C@@H]2O[C@H](COP(=O)(O)O)[C@@H](O)[C@H]2O)c(=O)n1 [CMP, Cytidine 5ʹ-monophosphate]
Intake diff. ([1]; nucleotide 5 mM versus water): 69.5 g

EC50 [2]: 0.48 mM
SMILES: O=c1[nH]c(=O)c2ncn([C@@H]3O[C@H](COP(=O)(O)O)[C@@H](O)[C@H]3O)c2[nH]1 [XMP, Xanthosine 5ʹ-monophosphate]
